According to US20150080580A1, “THIOUREA DERIVATIVES AS a-CHYMOTRYPSIN INHIBITORS” (priority 2013, published 2015):

How the values were obtained:
α-Chymotrypsin [1] = molecular target: T1, α-Chymotrypsin (Bos taurus, UniProt P00766); test: α-Chymotrypsin inhibition assay (SPpNA substrate, absorbance at 410 nm); assay type: biochemical, bovine; details: for IC50: α-chymotrypsin, substrate SPpNA 0.4 mM, pH 7.6, 30° C., n = 3
T1 construct: purchased Sigma-Aldrich (USA) C4129; host or cells: bovine pancreas
Experimental: (§1) α-Chymotrypsin (bovine pancreas, C4129) and N-succinyl-L-phenylalanine-p-nitroaniline (S2628) were purchased from Sigma-Aldrich (USA). Chymostatin (152845) from MP Biomedicals, LLC, USA, Tris(hydroxymethyl)aminomethane from Scharlau Chemie Barcelona, Spain and all other reagents were obtained from E. Merck and were of analytical grade. All other solvents and reagents were of analytical grade and used directly without purification.
This was performed in 50 mM Tris-HCl buffer pH 7.6 with 10 mM CaCl2. α-Chymotrypsin (12 units/mL prepared in 50 mM Tris-HCl buffer) with the different concentration of test compounds prepared in DMSO. It was then incubated at 30° C. for 25 min. The reaction was started by the addition of the substrate, N-succinyl-L-phenylalanine-p-nitroanilide (final concentration of 0.4 mM, prepared in the buffer as mentioned above). The change in absorbance due to released p-nitroaniline was continuously monitored at 410 nm (Choudhary et al., 2011). All the experiments were in a final volume of 200 μL in triplicate, and data was taken using a micro-plate reader (SpectraMax M2, Molecular Devices, Calif., USA).
The results were processed by using SoftMax Pro 4.8 then analyzed by MS Excel software. The % of inhibition based upon initial velocity and calculated as: […]
IC50 (Inhibition of enzymatic hydrolysis of the substrate SPpNA by 50%) value was calculated using EZ-Fit software (Perellela Scientific, Inc., Amherst, Mars, USA).

α-Chymotrypsin [2] = molecular target: T1, α-Chymotrypsin; test: α-Chymotrypsin inhibition kinetic study (Lineweaver-Burk, Dixon, Hanes-Woolf plots); assay type: biochemical, bovine; details: for Type of inhibition: from Lineweaver-Burk, Dixon and Hanes-Woolf plots; for Ki: substrate SPpNA 0.4-3.2 mM, n = 3, read-out: Ki ± SEM
Description: as §1
The change in concentration of the substrate/product (rate of reaction) was measured as optical density per minute (OD/min). This OD/min was obtained by incorporating different concentrations of compounds over substrate (SPpNA) concentrations between 0.4 mM and 3.2 mM in micro-plate reader. Reciprocal of OD/min against the reciprocal of the substrate concentration, defined as Lineweaver-Burk plot (and its secondary plot; slope vs compound concentration); the Dixon plot (and its secondary plot; slope vs reciprocal of compound concentration) and then Hanes-Woolf plot were plotted (Lineweaver et al., 1934; Dixon, 1953; Segel, 1993) Graphs were plotted using GraFit 4 (Erithacus Software Limited, Surrey, UK) and GraphPad Prism 5 (GraphPad Software, California, USA). The types of inhibition were determined by the graphical views of Dixon plots, Lineweaver-Burk plots and their secondary plots as well as Hanes-Woolf plot. The Ki values, obtained directly from the software, also were cross-checked and tallied in these graphs. Final concentration of DMSO was maintained 5.5%.

[3] = Cell proliferation inhibition (cytotoxicity) MTT assay for 3T3 cell line; assay type: cell-based, Mouse; details: 3T3 mouse fibroblast cells; 3T3 mouse fibroblasts, MTT, 72 hrs, n = 3; read-out: 3T3 cell-line GI50 ± SEM
Experimental: (§2) It was evaluated by using the MTT (3-[4,5-dimethylthiazole-2-yl]-2,5-diphenyl-tetrazolium bromide) assay (Mosmann, 1983). The 3T3 cell-lines (Mouse Fibroblasts) were cultured in Dulbecco's Modified Eagle's Medium, which was later supplemented with 5% of bovine serum, 100 IU/mL of penicillin, and 100 μg/mL of streptomycin, in 5% CO2 incubator at 37° C. Exponentially growing cell, 1×10^4 cells/well incorporated into each well of 96-well plates. Then, fresh the medium containing different concentrations of compounds were loaded in each well after 24 hours. Again, after 72 hrs, fresh the medium containing 0.5 mg/mL MTT were loaded in each well, and incubated further for 4 hrs. Subsequently, the media containing MTT was replaced by 100 μL of DMSO for 15 min, and then the absorbance was taken at 570 nm.

3T3 cell line = test: as above; assay type: cell-based, Mouse
Experimental: as §2

SMILES | IC50 (α-Chymotrypsin [1]) [µM] | Type of inhibition (α-Chymotrypsin [2]) | Ki (α-Chymotrypsin [2]) [µM] | α-chymotrypsin inhibition (in words) (α-Chymotrypsin [1]) | GI50 at 72 h [3] [µM] | growth inhibition for 3T3 cell lines (in words) (3T3 cell line)
S=C(Nc1ccc(Cl)cc1)Nc1cccc(Cl)c1 [Compound 1, 1-(3-Chlorophenyl)-3-(4-chlorophenyl) thiourea] | 11.6 | mixed-type | 8.6 ± 0.8 | – | > 30 | –
Cc1ccc(C)c(NC(=S)Nc2cccc(Cl)c2)c1 [Compound 14, 1-(3-Chlorophenyl)-3-(2,5-dimethylphenyl) thiourea] | 151 ± 8.8 | Competitive | 107 ± 5.5 | – | > 30 | –
S=C(Nc1cccc(Cl)c1)Nc1ccc(Cl)cc1Cl [Compound 8, 1-(3-Chlorophenyl)-3-(2,4-dichlorophenyl) thiourea] | 42.4 ± 0.3 | Mixed | 31.8 ± 3.4 | – | 21.4 ± 0.1 | showed growth inhibition
S=C(Nc1cccc(Cl)c1)Nc1c(Cl)cccc1Cl [Compound 16, 1-(3-Chlorophenyl)-3-(2,6-dichlorophenyl) thiourea] | 247.3 ± 1.7 | Competitive | 210 ± 11.8 | – | > 30 | –
Fc1ccc(NC(=S)Nc2cccc(Cl)c2)cc1F [Compound 11, 1-(3-Chlorophenyl)-3-(3,4-difluorophenyl) thiourea] | 66.9 ± 4.9 | Competitive | 49.8 ± 2.6 | – | > 30 | –
Cc1ccc(NC(=S)Nc2cccc(Cl)c2)cc1 [Compound 9, 1-(3-Chlorophenyl)-3-p-tolylthiourea] | 46.2 ± 0.5 | Non- Competitive | 39.6 ± 1 | – | 2.3 ± 0.4 | showed growth inhibition
Cc1cccnc1NC(=S)Nc1ccccc1 [Compound 31, 1-(3-Methylpyridin-2-yl)-3-phenylthiourea] | > 500 | – | – | – | – | –
Cc1ccc(Cl)cc1NC(=S)Nc1cccc(Cl)c1 [Compound 7, 1-(5-Chloro-2-methylphenyl)-3-(3-chlorophenyl) thiourea] | 40.4 ± 1.2 | Competitive | 25.8 ± 0.9 | – | 24.6 ± 0.2 | showed growth inhibition
Cc1cccc(NC(=S)Nc2cccc(Cl)c2)c1 [Compound 10, 1-(3-Chlorophenyl)-3-m-tolylthiourea] | 48.5 ± 1.7 | Mixed | 31.6 ± 1.8 | – | > 30 | –
COc1cccc(NC(=S)Nc2cccc(Cl)c2)c1 [Compound 4, 1-(3-Chlorophenyl)-3-(3-methoxyphenyl) thiourea] | 25.4 ± 0.2 | Mixed | 21.2 ± 1.5 | – | > 30 | –
Cc1ccccc1NC(=S)Nc1cccc(Cl)c1 [Compound 17, 1-(3-Chlorophenyl)-3-o-tolylthiourea] | 387 ± 13.1 | Competitive | 329 ± 11.6 | – | > 30 | –
Fc1ccc(NC(=S)Nc2cccc(Cl)c2)cc1 [Compound 12, 1-(3-Chlorophenyl)-3-(4-fluorophenyl) thiourea] | 68.4 ± 8.5 | Competitive | 62.5 ± 2.5 | – | > 30 | –
Cc1ccc(NC(=S)Nc2cccc(Cl)c2)c(C)c1 [Compound 15, 1-(3-Chlorophenyl)-3-(2,4-dimethylphenyl) thiourea] | 192 ± 9.2 | Non- Competitive | 173 ± 7.9 | – | > 30 | –
S=C(Nc1cccc(Cl)c1)Nc1ccc(Cl)c(Cl)c1 [Compound 2, 1-(3-Chlorophenyl)-3-(3,4-dichlorophenyl) thiourea] | 18.8 ± 0.2 | non-competitive-type | 15.5 ± 0.4 | – | > 30 | –
COc1ccc(NC(=S)Nc2cccc(Cl)c2)cc1 [Compound 6, 1-(3-Chlorophenyl)-3-(4-methoxyphenyl) thiourea] | 34.3 ± 2.8 | Mixed | 25.6 ± 0.9 | – | > 30 | –
S=C(Nc1cccc(Cl)c1)Nc1cccc(Cl)c1Cl [Compound 13, 1-(3-chlorophenyl)-3-(2,3-dichlorophenyl) thiourea] | 107 ± 9.1 | Competitive | 87.3 ± 6.7 | – | > 30 | –
S=C(NCc1ccncc1)Nc1cccc(Cl)c1 [Compound 18, 1-(3-Chlorophenyl)-3-(pyridin-4-ylmethyl)thiourea] | 186 ± 12.8 | Competitive | 148 ± 4.8 | – | > 30 | –
S=C(Nc1cccc(Cl)c1)Nc1cccc(Cl)c1 [Compound 3, 1,3-Bis(3-chlorophenyl) thiourea] | 23.3 | Mixed | 15.9 ± 1.5 | – | > 30 | –

The next lines start with results.

IC50 (α-Chymotrypsin [1]) [µM] | Type of inhibition (α-Chymotrypsin [2]) | Ki (α-Chymotrypsin [2]) [µM] | α-chymotrypsin inhibition (in words) (α-Chymotrypsin [1]) | SMILES | GI50 at 72 h [3] [µM] | growth inhibition for 3T3 cell lines (in words) (3T3 cell line)
45.7 ± 2.9 | competitive-type | 21.1 ± 2.5 | – | S=C(Nc1ccccc1)Nc1ccc(Br)cc1 [Compound 20, 1-(4-Bromophenyl)-3-phenylthiourea] | > 30 | –
> 500 | – | – | failed to show any inhibition | S=C(Nc1cccc(Cl)c1)Nc1ccccc1Cl [Compound 23, 1-(2-Chlorophenyl)-3-(3-chlorophenyl) thiourea] | – | –
> 500 | – | – | – | S=C(Nc1ccccc1)Nc1ccncc1 [Compound 30, 1-Phenyl-3-(pyridin-4-yl) thiourea] | – | –
> 500 | – | – | – | S=C(Nc1cccc(Cl)c1)Nc1cccnc1Cl [Compound 26, 1-(3-Chlorophenyl)-3-(2-chloropyridin-3-yl)thiourea] | – | –
193 ± 1 | Competitive | 142 ± 5 | – | Fc1ccc(NC(=S)Nc2ccccc2)c(F)c1 [Compound 22, 1-(2,4-Difluorophenyl)-3-phenylthiourea] | > 30 | –
> 500 | – | – | – | COc1ccc(OC)c(NC(=S)Nc2ccccc2)c1 [Compound 27, 1-(2,5-Dimethoxyphenyl)-3-phenylthiourea] | – | –
79.2 ± 0.6 | Mixed | 60.8 ± 7.4 | – | S=C(Nc1ccccc1)Nc1cccc(Br)c1 [Compound 21, 1-(3-Bromophenyl)-3-phenylthiourea] | > 30 | –
> 500 | – | – | – | Cc1cccnc1NC(=S)Nc1cccc(Cl)c1 [Compound 25, 1-(3-Chlorophenyl)-3-(3-methylpyridin-2-yl)thiourea] | – | –
> 500 | – | – | inactive | S=C(Nc1ccccc1)Nc1cccnc1 [Compound 29, 1-Phenyl-3-(pyridin-3-yl) thiourea] | – | –
> 500 | – | – | – | S=C(NCc1ccncc1)Nc1ccccc1 [Compound 35, 1-Phenyl-3-(pyridin-4-ylmethyl)thiourea] | – | –
> 500 | – | – | – | S=C(Nc1ccccc1)Nc1cccnc1Cl [Compound 33, 1-(2-Chloropyridin-3-yl)-3-phenylthiourea] | – | –
> 500 | – | – | – | S=C(Nc1ccccc1)Nc1ccccn1 [Compound 28, 1-Phenyl-3-(pyridin-2-yl) thiourea] | – | –
> 500 | – | – | – | Cc1cccc(C)c1NC(=S)Nc1cccc(Cl)c1 [Compound 24, 1-(3-Chlorophenyl)-3-(2,6-dimethylphenyl) thiourea] | – | –
> 500 | – | – | – | S=C(NCc1cccnc1)Nc1ccccc1 [Compound 34, 1-Phenyl-3-(pyridin-3-ylmethyl)thiourea] | – | –
> 500 | – | – | – | Cc1ccc(NC(=S)Nc2ccccc2)nc1C [Compound 32, 1-(5,6-Dimethylpyridin-2-yl)-3-phenylthiourea] | – | –
199 | Competitive | 166 ± 5.9 | – | S=C(Nc1cccnc1)Nc1cccc(Cl)c1 [Compound 19, 1-(3-Chlorophenyl)-3-(pyridin-3-yl) thiourea] | > 30 | –
